Reference: the OligoGym collection
These antisense oligonucleotides have a phosphorothioate backbone; sugars and methylation of C are not fully specified.

target: GNA11; conditions: ASO
Note: test concentration or dose not given here.

Compared with CTTCACCTCATCGCTCAG, CTTGTCCTCCTCCGAGTA is lower in remaining target (mRNA or protein) (fraction of control): 0.8 for the first, 0.21 for the second.

First: CACGCCATGATGGACTCC
Second: GTAGCCGGCGCCGTGGAT
The remaining target (mRNA or protein) (fraction of control) of the first is higher: at least 1 for the first, 0.99 for the second.

CTCCGCTCCGACCGCTGG gave a remaining target (mRNA or protein) (fraction of control) of 0.44.

target: TNFRSF1A; conditions: ASO

First: CCATTGAGGCAGAGGCTG
Second: AGCTGGAGGTGAAGGTGG
The remaining target (mRNA or protein) (fraction of control) of the first is lower: 0.52 for the first, at least 1 for the second.

Compared with AGCCGCTCTCACACTCCC, GTTCCTTTGTGGCACTTG is higher in remaining target (mRNA or protein) (fraction of control): 0.64 for the first, 0.88 for the second.

Compared with AGGTGGTTTTCTGAAGCG, CTTAGTAGTAGTTCCTTC is lower in remaining target (mRNA or protein) (fraction of control): at least 1 for the first, 0.85 for the second.

AGGCAGTGTCTGAGGTGG and ATTATTTTGAGGGTGGAT cannot be ordered by remaining target (mRNA or protein) (fraction of control): at least 1 for the first, at least 1 for the second.

Going from GGTACTGGTTCTTCCTGC to CTCAGGGACGAACCAGGG, the remaining target (mRNA or protein) (fraction of control) rises from 0.86 to 0.97.

Going from AAAGGCTCAGGGACGAAC to GCAGCCCAGCAGGTCCAT, the remaining target (mRNA or protein) (fraction of control) rises from 0.58 to 0.68.

Going from CAATGAAGAGGAGGGATA to GTGGAACTGGGCACGGGA, the remaining target (mRNA or protein) (fraction of control) rises from 0.79 to 0.96.

Compared with GAAGCCTGGAGTGGGACT, CCGTTGGTAGCGATACAT is higher in remaining target (mRNA or protein) (fraction of control): 0.52 for the first, 0.7 for the second.

Compared with GACCCATTTCCTTTCGGC, CATTTCCTTTCGGCATTT is higher in remaining target (mRNA or protein) (fraction of control): 0.74 for the first, 0.87 for the second.

Compared with TTGTTCCGTGCTCGCCCC, TCGTGGTCGCTCAGCCCT is higher in remaining target (mRNA or protein) (fraction of control): 0.59 for the first, 0.72 for the second.

TTTTCACTCCAATAATGC and CCGCCTCCAGGTCGCCAG cannot be ordered by remaining target (mRNA or protein) (fraction of control): at least 1 for the first, at least 1 for the second.

Compared with GCTTTTCTTACAGTTACT, CAGGAGCACCAGCGGCAG is lower in remaining target (mRNA or protein) (fraction of control): 0.9 for the first, 0.54 for the second.

Going from TTAAACCAATGAAGAGGA to AGGCTCTGTGGCTTGTGG, the remaining target (mRNA or protein) (fraction of control) falls from 0.72 to 0.53.

Compared with CACCAGCGGCAGCAGCAG, TCCAGGCTTTTCTTACAG is higher in remaining target (mRNA or protein) (fraction of control): 0.79 for the first, at least 1 for the second.

First: TTGGGCTCAGGGCAGTGT
Second: CATTTGGGCTCAGGGCAG
The remaining target (mRNA or protein) (fraction of control) of the first is higher: at least 1 for the first, 0.91 for the second.

Compared with ATAGCGTCCCTCATCCTC, ATCTGAGAAGACTGGGCG is higher in remaining target (mRNA or protein) (fraction of control): 0.66 for the first, at least 1 for the second.

First: TGAAGGTGGAACTGGGCA
Second: AGGAGGGATAAAAGGCAA
The remaining target (mRNA or protein) (fraction of control) of the first is lower: 0.73 for the first, 0.78 for the second.

First: TCTTCTCCCTGTCCCCTA
Second: CTGTCCTCCCACTTCTGA
The remaining target (mRNA or protein) (fraction of control) of the first is higher: 0.87 for the first, 0.84 for the second.

Compared with TTCTCTGGACTGAGGCTC, GGACTGAAGCCCAGGGTG is higher in remaining target (mRNA or protein) (fraction of control): 0.81 for the first, 0.88 for the second.

Going from GCAGTGTGGCAGCGGCAG to CTTACAGTTACTACAGGA, the remaining target (mRNA or protein) (fraction of control) rises from 0.47 to 0.79.

Going from AAAGGCAAAGACCAAAGA to TAACATTCTCAATCTGGG, the remaining target (mRNA or protein) (fraction of control) rises from 0.69 to at least 1.

Going from CGCAAAGTTGGGACAGTC to CAGTCCGTATCCTGCCCC, the remaining target (mRNA or protein) (fraction of control) rises from 0.7 to 0.74.

Going from TATATTCCCACCAACAGC to TCTGAAGCGGTGAAGGAG, the remaining target (mRNA or protein) (fraction of control) rises from 0.75 to at least 1.

Compared with TGCCTTAGGACAGTTCAG, GCAGAGGGCACAGGAGTG is lower in remaining target (mRNA or protein) (fraction of control): 0.8 for the first, 0.76 for the second.

First: GCTCCTGCTTGCCCCTGC
Second: GCAGGTCAGGCACGGTGG
The remaining target (mRNA or protein) (fraction of control) of the first is lower: 0.57 for the first, 0.84 for the second.

Compared with GTTAGCACCAAGTAGGCG, AGACTCGGGCATAGAGAT is higher in remaining target (mRNA or protein) (fraction of control): 0.89 for the first, at least 1 for the second.

First: TCCCCTCCTCTCTGCTTT
Second: TCGATTTCCCACAAACAA
The remaining target (mRNA or protein) (fraction of control) of the first is lower: 0.95 for the first, 0.99 for the second.

First: ACAGTTGAGGGTTGAGAC
Second: AGGGCAGTGTGGCAGCGG
The remaining target (mRNA or protein) (fraction of control) of the first is higher: 0.7 for the first, 0.47 for the second.

Going from ACTGTGGTGCCTGAGTCC to GCCTGGACAGTCATTGTA, the remaining target (mRNA or protein) (fraction of control) rises from 0.69 to at least 1.

AGCTGAGGCAGTGTCTGA and ACAAAACAAAACAAAACA are the same in remaining target (mRNA or protein) (fraction of control): 0.73 for the first, 0.73 for the second.

Compared with ACGGTCCCATTGAGGCAG, TCCTCCAGGCAGCCCAGC is lower in remaining target (mRNA or protein) (fraction of control): 0.66 for the first, 0.59 for the second.

Compared with GCCAAGTTTCTATTAGTG, ACGGTGTTCTGTTTCTCC is higher in remaining target (mRNA or protein) (fraction of control): 0.9 for the first, 0.93 for the second.

Compared with GGTGACAGTTGAGGGTTG, CTCAGGGCAGTGTGGCAG is lower in remaining target (mRNA or protein) (fraction of control): 0.92 for the first, 0.39 for the second.
